Patent US10287301B2 (Achillion Pharmaceuticals, Inc., priority 2015, dated 2019)
Like-named read-outs stand apart in the source and are kept apart here.

Target: Human Factor D (Homo sapiens (Human), UniProt P00746)
Assay: Human Factor D Assay
Format: biochemical
Experimental: Human Factor D (purified from human serum, Complement Technology, Inc.) at 80 nM final concentration was incubated with test compound at various concentrations for 5 minutes at room temperature in 50 mM Tris, 1M NaCl, pH 7.5. A synthetic substrate Z-L-Lys-SBzl and DTNB (Ellman's reagent) are added to final concentrations of 100 μM each. […] IC50 values are calculated by nonlinear regression of complement Factor D reaction rates as a function of test compound concentration.

[1] = Human Factor D 80 nM, substrate Z-L-Lys-SBzl, read-out: IC50

Chain of Human Factor D (P00746 26-253): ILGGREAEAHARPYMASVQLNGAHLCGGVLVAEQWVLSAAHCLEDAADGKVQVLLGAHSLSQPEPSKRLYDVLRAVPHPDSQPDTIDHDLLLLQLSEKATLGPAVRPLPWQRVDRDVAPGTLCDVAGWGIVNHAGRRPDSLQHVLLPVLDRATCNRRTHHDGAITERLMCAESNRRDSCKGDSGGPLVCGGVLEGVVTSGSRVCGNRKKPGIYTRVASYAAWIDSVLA

| Structure (SMILES) | IC50 [1] | IC50 |
| --- | --- | --- |
| NC(=O)c1nn(CC(=O)N2C[C@H](F)C[C@H]2C(=O)Nc2cccc(OC(F)(F)F)c2F)c2ccc(-c3cncnc3)cc12 [Compound 9, 1-(2-((2S,4R)-4-fluoro-2-(2-fluoro-3-(trifluoromethoxy)phenylcarbamoyl)pyrrolidin-1-yl)-2-oxoethyl)-5-(pyrimidin-5-yl)-1H-indazole-3-carboxamide] | < 1000 nM |  |
| NC(=O)c1nn(CC(=O)N2C[C@H](F)C[C@H]2C(=O)Nc2cccc(-c3ccccc3Cl)c2F)c2ccc(-c3cnc(N4CCCC4)nc3)cc12 [Compound 10] | < 1000 nM |  |
| NC(=O)c1nn(CC(=O)N2[C@@H]3C[C@@H]3C[C@H]2C(=O)Nc2cccc(Br)n2)c2ccc(-c3cnc(N4CCCC4)nc3)cc12 [Compound 11] | < 1000 nM |  |
| NC(=O)c1nn(CC(=O)N2C[C@H](F)C[C@H]2C(=O)Nc2cccc(-c3ccccc3Cl)c2F)c2ccc(-c3ccc(F)nc3)cc12 [Compound 12, 1-(2-((2S,4R)-2-((2′-Chloro-2-fluoro-[1,1′-biphenyl]-3-yl)carbamoyl)-4-fluoropyrrolidin-1-yl)-2-oxoethyl)-5-(6-fluoropyridin-3-yl)-1H-indazole-3-carboxamide] | < 1000 nM |  |
| NC(=O)c1nn(CC(=O)N2[C@@H]3C[C@@H]3C[C@H]2C(=O)Nc2cccc(-c3ccccc3Cl)c2F)c2ccc(-c3ccc(F)nc3)cc12 [Compound 13, 1-(2-((1R,3S,5R)-3-(2′-chloro-2-fluorobiphenyl-3-ylcarbamoyl)-2-azabicyclo[3.1.0]hexan-2-yl)-2-oxoethyl)-5-(6-fluoropyridin-3-yl)-1H-indazole-3-carboxamide] | < 1000 nM |  |
| CC(=O)c1cn(CC(=O)N2C[C@H](F)C[C@H]2C(=O)Nc2cccc(Br)n2)c2ccc(-c3cncnc3)cc12 [Compound 14, (2S,4R)-1-(2-(3-acetyl-5-(pyrimidin-5-yl)-1H-indol-1-yl)acetyl)-N-(6-bromopyridin-2-yl)-4-fluoropyrrolidine-2-carboxamide] | < 1000 nM |  |
| CC(=O)c1cn(CC(=O)N2[C@@H]3C[C@@H]3C[C@H]2C(=O)Nc2cccc(-c3ccccc3Cl)c2F)c2ccc(-c3cncnc3)cc12 [Compound 15, (1R,3S,5R)-2-(2-(3-acetyl-5-(pyrimidin-5-yl)-1H-indol-1-yl)acetyl)-N-(2′-chloro-2-fluorobiphenyl-3-yl)-2-azabicyclo[3.1.0] hexane-3-carboxamide] | < 1000 nM |  |
| CC(=O)c1cn(CC(=O)N2C[C@H](F)C[C@H]2C(=O)Nc2cccc(-c3ccccc3Cl)c2F)c2ccc(N3CCN(C(C)=O)CC3)cc12 [Compound 16, (2S,4R)-1-(2-(3-acetyl-5-(4-acetylpiperazin-1-yl)-1H-indol-1-yl)acetyl)-N-(2′-chloro-2-fluorobiphenyl-3-yl)-4-fluoropyrrolidine-2-carboxamide] | < 1000 nM |  |
| CC(=O)c1cn(CC(=O)N2[C@@H]3C[C@@H]3C[C@H]2C(=O)Nc2cccc(Br)n2)c2ccc(-c3cncnc3)cc12 [Compound 17, (1R,3S,5R)-2-(2-(3-acetyl-5-(pyrimidin-5-yl)-1H-indol-1-yl)acetyl)-N-(6-bromopyridin-2-yl)2-azabicyclo[3.1.0] hexane-3-carboxamide] | < 1000 nM |  |
| NC(=O)c1nn(CC(=O)N2C[C@H](F)C[C@H]2C(=O)NCc2cccc(Cl)c2F)c2cnc(-c3cncnc3)cc12 [Compound 18, 1-(2-((2S,4R)-2-(3-chloro-2-fluorobenzyl-carbamoyl)-4-fluoropyrrolidin-1-yl)-2-oxoethyl)-5-(pyrimidin-5-yl)-1H-pyrazolo[3,4-c]pyridine-3-carboxamide] | < 1000 nM |  |
| NC(=O)c1nn(CC(=O)N2C[C@H](F)C[C@H]2C(=O)Nc2cccc(-c3ccccc3Cl)c2F)c2cnc(-c3cncnc3)cc12 [Compound 19, 1-(2-((2S,4R)-2-((2′-Chloro-2-fluoro-[1,1′-biphenyl]-3-yl)carbamoyl)-4-fluoropyrrolidin-1-yl)-2-oxoethyl)-5-(pyrimidin-5-yl)-1H-pyrazolo[3,4-c]pyridine-3-carboxamide] | < 1000 nM |  |
| CC(=O)c1cn(CC(=O)N2C[C@H](F)C[C@H]2C(=O)Nc2cccc(-c3ccccc3Cl)c2F)c2ccc(-c3ccnnc3)cc12 [Compound 20, (2S,4R)-1-(2-(3-Acetyl-5-(pryridazin-4-yl)-1H-indol-1-yl)acetyl)-N-(2′-chloro-2-fluoro-[1,1′-biphenyl]-3-yl)-4-fluoropyrrolidine-2-carboxamide] | < 1000 nM |  |
| COc1ncc(-c2ccc3c(c2)c(C(C)=O)cn3CC(=O)N2C[C@H](F)C[C@H]2C(=O)Nc2cccc(Br)n2)cn1 [Compound 21, (2S,4R)-1-(2-(3-acetyl-5-(2-methoxypyrimidin-5-yl)-1H-indol-1-yl)acetyl)-N-(6-bromopyridin-2-yl)-4-fluoropyrrolidine-2-carboxamide] | < 1000 nM |  |
| CN1CC=C(c2ccc3c(c2)c(C(N)=O)nn3CC(=O)N2C[C@H](F)C[C@H]2C(=O)Nc2cccc(Br)n2)CC1 [Compound 22, 1-(2-((2S,4R)-2-(6-bromopyridin-2-ylcarbamoyl)-4-fluoropyrrolidin-1-yl)-2-oxoethyl)-5-(1-methyl-1,2,3,6-tetrahydropyridin-4-yl)-1H-indazole-3-carboxamide] | < 1000 nM |  |
| NC(=O)c1nn(CC(=O)N2C[C@H](F)C[C@H]2C(=O)Nc2cccc(Br)n2)c2ccc(-c3ccnnc3)cc12 [Compound 25, 1-(2-((2S,4R)-2-(6-bromopyridin-2-ylcarbamoyl)-4-fluoropyrrolidin-1-yl)-2-oxoethyl)-5-(pyridazin-4-yl)-1H-indazole-3-carboxamide] | < 1000 nM |  |
| CC(=O)c1cn(CC(=O)N2C[C@H](F)C[C@H]2C(=O)Nc2cccc(-c3ccccc3Cl)c2F)c2ccc(-c3cnc(N4CCCC4)nc3)cc12 [Compound 26, (2S,4R)-1-(2-(3-acetyl-5-(2-(pyrrolidin-1-yl)pyrimidin-5-yl)-1H-indol-1-yl)acetyl)-N-(2′-chloro-2-fluorobiphenyl-3-yl)-4-fluoropyrrolidine-2-carboxamide] | < 1000 nM |  |
| COc1ncc(-c2ccc3c(c2)c(C(C)=O)cn3CC(=O)N2C[C@H](F)C[C@H]2C(=O)Nc2cccc(-c3ccccc3Cl)c2F)cn1 [Compound 27, (2S,4R)-1-(2-(3-acetyl-5-(2-methoxypyrimidin-5-yl)-1H-indol-1-yl)acetyl)-N-(2′-chloro-2-fluorobiphenyl-3-yl)-4-fluoropyrrolidine-2-carboxamide] | < 1000 nM |  |
| CC(=O)c1cn(CC(=O)N2C[C@H](F)C[C@H]2C(=O)Nc2cccc(-c3ccccc3Cl)c2F)c2ccc(C3=CCN(C(C)=O)CC3)cc12 [Compound 28, (2S,4R)-1-(2-(3-Acetyl-5-(1-acetyl-1,2,3,6-tetrahydropyridin-4-yl)-1H-indol-1-yl)acetyl)-N-(2′-chloro-2-fluoro-[1,1′-biphenyl]-3-yl)-4-fluoropyrrolidine-2-carboxamide] | < 1000 nM |  |
| COc1ncc(-c2ccc3c(c2)c(C(N)=O)nn3CC(=O)N2C[C@H](F)C[C@H]2C(=O)Nc2cccc(-c3ccccc3Cl)c2F)cn1 [Compound 29, 1-(2-((2S,4R)-2-(2′-chloro-2-fluorobiphenyl-3-ylcarbamoyl)-4-fluoropyrrolidin-1-yl)-2-oxoethyl)-5-(2-methoxypyrimidin-5-yl)-1H-indazole-3-carboxamide] | < 1000 nM |  |
| COc1ncc(-c2ccc3c(c2)c(C(N)=O)nn3CC(=O)N2C[C@H](F)C[C@H]2C(=O)Nc2cccc(Cl)n2)cn1 [Compound 30, 1-(2-((2S,4R)-2-(6-chloropyridin-2-ylcarbamoyl)-4-fluoropyrrolidin-1-yl)-2-oxoethyl)-5-(2-methoxypyrimidin-5-yl)-1H-indazole-3-carboxamide] | < 1000 nM |  |
| CC(=O)c1cn(CC(=O)N2C[C@H](F)C[C@H]2C(=O)Nc2cccc(-c3ccccc3Cl)c2F)c2ccc(N3CCN(c4ncccn4)CC3)cc12 [Compound 31, (2S,4R)-1-(2-(3-acetyl-5-(4-(pyrimidin-2-yl)piperazin-1-yl)-1H-indol-1-yl)acetyl)-N-(2′-chloro-2-fluorobiphenyl-3-yl)-4-fluoropyrrolidine-2-carboxamide] | < 1000 nM |  |
| CC(=O)c1cn(CC(=O)N2C[C@H](F)C[C@H]2C(=O)Nc2cccc(-c3ccccc3Cl)c2F)c2ccc(N3CCN(c4ncc(F)cn4)CC3)cc12 [Compound 32, (2S,4R)-1-(2-(3-acetyl-5-(4-(5-fluoropyrimidin-2-yl)piperazin-1-yl)-1H-indol-1-yl)acetyl)-N-(2′-chloro-2-fluorobiphenyl-3-yl)-4-fluoropyrrolidine-2-carboxamide] | < 1000 nM |  |
| CC(=O)c1cn(CC(=O)N2C[C@H](F)C[C@H]2C(=O)Nc2cccc(-c3ccccc3Cl)c2F)c2ccc(N3CCN(S(C)(=O)=O)CC3)cc12 [Compound 33, (2S,4R)-1-(2-(3-Acetyl-5-(4-(methylsulfonyl)piperazin-1-yl)-1H-indol-1-yl)acetyl)-N-(2′-chloro-2-fluoro-[1,1′-biphenyl]-3-yl)-4-fluoropyrrolidine-2-carboxamide] | < 1000 nM |  |
| CC(=O)c1cn(CC(=O)N2C[C@H](F)C[C@H]2C(=O)Nc2ccccc2-c2nc3ccccc3s2)c2ccc(-c3ccnnc3)cc12 [Compound 34, (2S,4R)-1-(2-(3-acetyl-5-(pyridazin-4-yl)-1H-indol-1-yl)acetyl)-N-(2-(benzo[d]thiazol-2-yl)phenyl)-4-fluoropyrrolidine-2-carboxamide] |  | > 10000 nM |
| CC(=O)c1cn(CC(=O)N2C[C@H](F)C[C@H]2C(=O)NCc2ccccn2)c2ccc(-c3ccnnc3)cc12 [Compound 38, (2S,4R)-1-(2-(3-acetyl-5-(pyridazin-4-yl)-1H-indol-1-yl)acetyl)-4-fluoro-N-(pyridin-2-ylmethyl) pyrrolidine-2-carboxamide] | < 1000 nM |  |
| NC(=O)c1nn(CC(=O)N2C[C@H](F)C[C@H]2C(=O)NCc2cccnc2)c2ccc(-c3ccnnc3)cc12 [Compound 39, 1-(2-((2S,4R)-4-fluoro-2-(pyridin-3-ylmethylcarbamoyl)pyrrolidin-1-yl)-2-oxoethyl)-5-(pyridazin-4-yl)-1H-indazole-3-carboxamide] |  | 1000 to 10000 nM |
